**Q.** With `Cc1ccc(Cl)c2c1NC(=O)C2OC(=O)Cc1ccccc1` (stereo not given) as the compound, how does the logP read?
**A.** Its logP is 3.19.

**Q.** With `CCOC(=O)C=C1c2ccccc2NC(=O)C1(O)Cc1ccccc1` (stereo not given) as the compound, how does the logP read?
**A.** Its logP is 4.16.

**Q.** With `CN1C(=O)C(O)(Cc2ccccc2)C(=CC(=O)O)c2ccccc21` (stereo not given) as the compound, how does the logP read?
**A.** Its logP is 2.31.

**Q.** With `CCCCC1(O)C(=O)N(c2ccccc2)c2ccccc2C1=CC(=O)O` (stereo not given) as the compound, how does the logP read?
**A.** Its logP is 2.44.

**Q.** With `CCCCC1(O)C(=O)Nc2ccccc2C1=CC(=O)OCC` (stereo not given) as the compound, how does the logP read?
**A.** Its logP is 4.47.

**Q.** With `CCCCC1(O)C(=O)N(C)c2ccccc2C1=CC(=O)O` (stereo not given) as the compound, how does the logP read?
**A.** The logP was 2.23.

**Q.** Which logP does the source give for `CCOC(=O)C=C1c2ccccc2N(C)C(=O)C1(O)Cc1ccccc1` (stereo not given) here?
**A.** Its logP is 4.75.

**Q.** Which logP does the source give for `O=C(O)C=C1c2ccccc2NC(=O)C1(O)Cc1ccccc1` (stereo not given) here?
**A.** The logP was 2.27.

**Q.** With `CCCCC1(O)C(=O)Nc2ccccc2C1=CC(=O)O` (stereo not given) as the compound, how does the logP read?
**A.** Its logP is 2.18.

**Q.** For `CCCCC(=O)OC1C(=O)Nc2cc(C)cc(C)c21` (stereo not given), which logP is on record?
**A.** Its logP is 3.19.

**Q.** With `Cc1cc(C)c2c(c1)NC(=O)C2OC(=O)Cc1ccccc1` (stereo not given) as the compound, how does the logP read?
**A.** Its logP is 3.22.

**Q.** With `CCCCC(=O)OC1C(=O)Nc2c(C)ccc(C)c21` (stereo not given) as the compound, how does the logP read?
**A.** The logP was 3.2.

**Q.** Which logP does the source give for `CCCCC1(O)C(=O)N(C)c2ccccc2C1=CC(=O)OCC` (stereo not given) here?
**A.** The logP was 4.21.

**Q.** For `O=C(O)C=C1c2ccccc2N(c2ccccc2)C(=O)C1(O)Cc1ccccc1` (stereo not given), which logP is on record?
**A.** The logP was 2.57.

**Q.** With `O=C(O)C=C1c2ccccc2N(c2ccccc2)C(=O)C1(O)c1ccccc1` (stereo not given) as the compound, how does the logP read?
**A.** Its logP is 2.83.

Reference: the SangsterLogP compilation
